Experiments:
tumor cell = conditions: background art; cited from earlier work
Caco2 cells [1] = assay: Heme content (fluorescence assay) in Caco2 cells; type: cell-based, human; conditions: FLVCR1a-silenced Caco2 cells, 5 mM 5-ALA+0.5 mM SA
Experimental: (A) Heme content in Caco2 cells treated with 5 mM 5-ALA (black bars and white bars) or with 5 mM 5-ALA+0.5 mM SA (light grey outlined bars) for the indicated time points. […] Values are expressed as relative fluorescence intensity. Data represent mean±SEM, n=2. For statistical analyses, a two-way analysis of variance was used, followed by the Bonferroni correction for multiple group comparisons; **=p<0.01, ***=p<0.001. 5-ALA, 5-aminolevulinic acid; SA, succinylacetone. (B) Intracellular 5-ALA levels. […] Values are expressed as peak area/μg proteins. Data represent mean±SEM of n=4 wells pooled from two independent experiments. For statistical analyses, an unpaired Student's t-test was used; **=p<0.01. 5-ALA, 5-aminolevulinic acid. […] Values are expressed as peak area/μg proteins. […] Transcript abundance, normalized to beta-actin mRNA expression, is expressed as a fold increase over a calibrator sample. […] Band intensities were measured by densitometry and normalized to vinculin expression. […]
Intracellular heme concentration was measured using a fluorescence assay, as previously reported (Sinclair et al., 2001). […] Fluorescence (wavelength: excitation 405 nm-emission 660-720 nm) of the resultant protoporphyrin was assessed on a Glomax Multi Detection System (Promega Corporation, Madison WI, USA).
The endogenous protoporphyrin content (measured in parallel unheated samples in oxalic acid) was subtracted. […]

lung tumor LLC cells = assay: LLC cell viability (CellTiter-Fluor) as readout of proliferation; type: cell-based, murine; conditions: 0.5 mM SA at day 0, no medium refresh
[2] = system: FLVCR1a-overexpressing Caco2 cells; assay: TCA cycle flux in Caco2 cells overexpressing FLVCR1a; type: cell-based, human
Experimental: (A) TCA cycle flux in Caco2 cells expressing a scramble shRNA untreated or treated with 25 μM hemin for 2 hours. Moreover, the TCA cycle flux of untreated FLVCR1a-silenced Caco2 cells is reported for comparison. Results are expressed as pmol CO2/h/mg protein. Data represent mean±SEM, n=3. For statistical analyses, an unpaired Student's t-test was used to compare the two matched groups; *=p<0.05, ***=p<0.001. […] Results are expressed as pmol CO2/h/mg protein. Data represent mean±SEM, n=3. For statistical analyses, an unpaired Student's t-test was used; *=p<0.05, **=p<0.01. (C) TCA cycle flux in Caco2 cells overexpressing FLVCR1a (indicated as FLVCR1a+) are compared to cells stably transduced with an empty vector. Moreover, the TCA cycle flux of FLVCR1a-overexpressing Caco2 cells treated with 25 μM hemin or 0.5 mM SA for 2 hours is reported. Results are expressed as pmol CO2/h/mg protein. Data represent mean±SEM, n=3. For statistical analyses, an unpaired Student's t-test was used to compare the two matched groups; *=p<0.05, **=p<0.01. SA, succinylacetone. […]
(§1) The glucose flux through TCA cycle was measured by radiolabeling cells with 2 μCi/ml [6-^14C]-glucose (55 mCi/mmol; PerkinElmer, Waltham, MA, USA, catalog n° NEC045X). […] The amount of glucose transformed into CO2 through the TCA cycle was calculated as described (Riganti et al., 2004) and expressed as pmoles CO2/h/mg cell proteins.

Caco2 cells [3] = assay: TCA cycle flux in Caco2 cells; type: cell-based, human; conditions: control (scramble shRNA) Caco2 cells, 25 μM hemin for 2 hours
Description: TCA cycle flux is reported in the centre of the figure and expressed as pmol CO2/h/mg protein. Data represent mean±SEM, n=3. For statistical analyses, an unpaired Student's t-test was used. **=p<0.01. Moreover, TCA cycle enzymes activities are reported in boxes and expressed as mU/mg mitochondrial proteins. Data represent mean±SEM, n=3. For statistical analyses, an unpaired Student's t-test was used; *=p<0.05, ***=p<0.001. […] Results are expressed as pmol CO2/h/mg protein. Data represent mean±SEM, n=3. For statistical analyses, an unpaired Student's t-test was used; *=p<0.05, **=p<0.01.
(A) TCA cycle flux in Caco2 cells expressing a scramble shRNA untreated or treated with 25 μM hemin for 2 hours. Moreover, the TCA cycle flux of untreated FLVCR1a-silenced Caco2 cells is reported for comparison. Results are expressed as pmol CO2/h/mg protein. Data represent mean±SEM, n=3. […] Results are expressed as pmol CO2/h/mg protein. […] Results are expressed as pmol CO2/h/mg protein. […]
as §1

In the case of `CC(=O)CC(=O)CCC(=O)O` [SA, 4-6 Dioxoheptanoic acid], the “tumor cell survival and proliferation” value (tumor cell) is given as “reduce tumor cell survival and proliferation”, the “accumulation of de-novo synthesized heme” value (Caco2 cells [1]) is given as “blunted” and the “cell proliferation (cell viability)” value (lung tumor LLC cells) is given as “effects on cell proliferation were similar”. For the same compound, the “reduction of the TCA cycle flux in FLVCR1a-overexpressing cells” value ([2]; 0.5 mM SA for 2 hours) was “reverted”.

With “Hemin Ferriprotoporphyrin IX chloride [reference compound]” the TCA cycle flux (Caco2 cells [3]) was “increased TCA cycle flux” and the “reduction of the TCA cycle flux in FLVCR1a-overexpressing cells” value ([2]; 25 μM hemin for 2 hours) was “reverted”.

From patent US20240285670A1, “THERAPEUTIC TREATMENT OF TUMORS BY BLOCKING THE HEME SYNTHESIS-EXPORT AXIS” (Università degli Studi di Torino, priority 2021, published 2024)
